In patent US20190030018A1 (Celgene Corporation, priority 2017, published 2019):
In brackets after ≈: the same amount, converted by molar mass. Like-named read-outs stand apart in the source and are kept apart here.

Experiments:
[1] = test system: GSPT1 and mTORC1 effectors in BON cells; test: Western blot of BON cell lysates after 120 h treatment; assay type: cell-based
Procedure: BON cells were cultured in DMEM: F12K media containing 10% fetal bovine serum and penicillin/streptomycin antibiotics. […] Cells were harvested and probed with antibodies for western blots and imaged using a Li-Cor Odyssey imaging system. All total and phosphorylated antibodies were obtained from Cell Signaling Technology.

[2] = test system: IDH2 mutant cell line TF1-R140Q; test: Proliferation (total, HSC and progenitor cell count) in the TF1 assay; assay type: cell-based
Procedure: Cells were plated at a density of 0.2e^6 cells/ml of 2 ml culture in 6 well plates.
TF1 cells were cultured in the following media: RPMI containing HEPES and L-glutamine, 10% FBS, Pen/Strep, G418 (final conc 500 μg/ml), and GM-CSF (final conc 5 ng/ml). The cells were cultured for 7 days, with or without compound treatment as described in FIG. 91.
For the hemoglobinization assay, TF1 cells were washed three times with PBS to remove residual GM-CSF then plated at (100,000 cells/ml). Cells were then induced to differentiate using EPO (2 unit/ml). Induction continued for 7 days with changing media on 4th day and adding media with fresh EPO. The cell pellets were collected and imaged for hemoglobinization content (as a surrogate for differentiation into blood lineage). Cells were pelleted, washed, stained with a panel of antibodies and analyzed by flow cytometry, using the following antibodies: […]

physchem [3] = conditions: aqueous with cosolvent or surfactant or cyclodextrin
Procedure: In the first precipitation study, four solution formulations were prepared at a Kleptose concentration of 100 mg/mL. […] Then the solutions were stored in three conditions: (1) at ambient condition with mild mixing; (2) at ambient condition without mixing; (3) at 2-8° C. without mixing.
The corresponding drug concentration of each formulation was 300, 400, and 500 μg/mL so that the supersaturation ratio was about 5× for all the three formulations. […] In the study, the same experiments were repeated twice to evaluate the reproducibility of the results.

[4] = test system: primary human tumor xenograft model GA0087; test: HuPrime gastric cancer xenograft GA0087 model, in vivo efficacy; design: species or system female BALB/c nude mice; conditions: single agent
Description: Tumor fragments from stock mice were harvested and used for inoculation into mice. Each mouse was inoculated subcutaneously at the right flank with primary human tumor xenograft model GA0087 tumor fragment (P7, 2-3 mm in diameter) for tumor development. […] After tumor inoculation, the animals were checked daily for morbidity and mortality. At the time of routine monitoring, the animals were checked for any effects of tumor growth and treatments on normal behavior such as mobility, food and water consumption, body weight gain/loss, eye/hair matting and any other abnormal effect. Death of euthanized mouse was recorded. All groups were terminated on Day 40. Three tumors in each group, with tumor volume near median of each group were collected. Plasma of the same mice were collected. For comparison among three or more groups, one-way ANOVA was performed followed by multiple comparison procedures. All data were analyzed using SPSS 18.0. P values <0.05 is considered to be statistically significant.

[5] = test system: GSPT1, Mcl-1, Bcl-2, cleaved caspase 3 in KG-1 cells; test: KG-1 western blots, 16 h; assay type: cell-based
Procedure: KG-1 cells were seeded in 6 well tissue culture plates at 500,000 cells per mL, 4 mL per well. […] Cells were then washed twice with cold PBS and lysed with M-PER lysis buffer (Thermo) supplemented with 150 mM NaCl and Halt protease and phosphatase inhibitor cocktail (Thermo) on ice for 30 min. Crude lysates were clarified by centrifugation (14000 rpm, 10 min, 4° C.) and total protein quantified by BCA assay. GSPT1 (Abcam, ab49878), Mcl-1 (CST, 4572), Bcl-2 (CST, 4223), cleaved caspase 3 (CST, 9664), and GAPDH (Santa Cruz, sc-47724) levels were probed by western and imaged on a LiCor infrared imager.

[6] = test system: stomach cancer cell line GA0087; test: GA0087 PDX model ex vivo 3D methylcellulose CellTiter-Glo cell viability assay (IC50, matrix combination, Combination Index)
Procedure: (§1) Materials and Methods: The stomach cancer cell line GA0087 was used in this study. […] Culture media was purchased from GIBCO or Sigma, USA.
(§2) Everolimus was obtained from Selleck. Cisplatin was used as a reference drug, and was obtained from Hospira Australia pty Ltd.
(§3) PDX tumor models were maintained at Crownbio HuPrime animal facility. Tumor growth was monitored weekly. Tumor volumes were measured in two dimensions using a caliper, and the volume was expressed in mm^3 using the formula: V=0.5 a×b^2 where a and b are the long and short diameters of the tumor, respectively. • 2. Mouse xenografts at tumor volume around 800 mm^3 were housed with sterile surgical tools and tumor tissue was minced into tiny pieces with scissors in small amount of PBS on a new tissue culture plate. • 3. The cell suspension was filtered through Falcon cell strainer. The nylon mesh was washed 3-5 times with PBS. • 4. The cell suspension was centrifuged at 1000 rpm for 5 minutes and the pellet was washed with PBS and centrifuged again. • 5. Red blood cells were removed using red blood cell lysis buffer. • 6. The cell suspension was centrifuged at 1000 rpm for 5 minutes and the pellet was washed with PBS and centrifuged again. • 7. The cell pallet was re-suspended with appropriate cell culture media for different cells. • 8. Cells were counted with Countstar by trypan blue exclusion.
(§4) Day −1: Cell Plating • 1. The cells were harvested during the logarithmic growth period. The harvested cells were cultured with appropriate cell media and centrifuged at 1000 rpm for 3 minutes. […] (Cell concentration was adjusted according to the data base or density optimization assay). • 3. 3.5 mL of cell suspension was mixed with 6.5 mL of 1% methylcellulose. […] 90 μL cell suspensions were added to 96-well plates according to plate map with final cell density. Two duplicate plates were set up: one for day 0 reading (T0) and the other was cultured in incubator for reading at the end point.
(§5) Day 0: T0 Plate Reading and Compound Treatment • 5.10 μL culture medium was added to T0 plate in each well for T0 reading. • 6.100 μl CellTiter-Glo® Reagent was added to each well. • 7. The contents were mixed for 2 minutes on an orbital shaker to facilitate cell lysis. • 8. The plates were allowed to incubate at room temperature for 10 minutes to stabilize luminescent signal. • 9. A backseal black sticker was placed to the bottom of each plate. • 10. The luminescence was read using EnVision Multi Label Reader. • 11.
(§6) The solutions were stored at −20° C. […] The response score was calculated by normalizing to DMSO control. The combination index (CI) was calculated using Chou and Talalay method, wherein a CI of less than 1 indicates synergy. Cisplatin was used as control in the single compound dose response, but was not included in the combination test.
(§7) After drug incubation, pictures for representative wells were taken using a phase contrast microscope. • 13. 100 μL CellTiter-Glo® Reagent was added to each well. • 14. Contents were mixed for 2 minutes on an orbital shaker to facilitate cell lysis. • 15. The plates were allowed to incubate at room temperature for 10 minutes to stabilize luminescent signal. • 16. Backseal black sticker was placed to the bottom of each plate. • 17. Luminescence was recorded using EnVision Multi Label Reader.
(§8) In order to calculate IC50, a dose-response curve was fitted using nonlinear regression model with a sigmoidal dose response. The formula of surviving rate is shown below, and the IC50 was automatically produced by GraphPad Prism 5.0.
(§9) The surviving rate (%)=(LumTest article−LumMedium control)/(LumNone treated−LumMedium control)×100%.

[7] = as above
Procedure: as §1, §2, §3, §4, §5, §6, §7, §8, §9

physchem [8] = assay type: physicochemical; conditions: 25 °C, aqueous with cosolvent or surfactant or cyclodextrin, thermodynamic from solid, Solubility at 25° C. (mg/mL)
Procedure: Two studies were performed to evaluate the supersaturation risks of Kleptose based formulations. […] The second study is intended to evaluate the kinetics of drug precipitation in Formulation Ib.
In this experiment, ten solutions were prepared by dissolving Kleptose and formic acid in WFI. The Kleptose concentration in all the ten solutions varied from 30 mg/mL to 250 mg/mL, while the formic acid concentration was kept constant at 1.65 mg/mL as used in the bulk solution of formulation Ib. […] Then the sample of each solution was taken and centrifuged for assay testing.

[9] = test system: BaF3 cells expressing hCRBN, hCRBN and JAK2 wt, or hCRBN and JAK2-V617F; test: Combination studies with JAK2 inhibitors in engineered BaF3 cells, CellTitre-Glo after 3 days; assay type: cell-based; conditions: IL3 dependent BaF3 lines
Procedure: Everolimus was included as a control. The cell viability was then measured by CellTitre-Glo® after 3 days.

[10] = test system: peripheral blood mononuclear cells (PBMCs) from myelofibrosis patients; test: Colony forming assay using myelofibrosis patient samples; assay type: cell-based, human
Description: The following samples were used:
MF13: De novo MF, characterized by JAK2 wt, FLT3 wt, NPM1 wt, CEBPA wt
MF14: De novo MF, characterized by JAK2 wt, CALR exon9 mut, ASXL1 wt, MPLwt

physchem [11] = assay type: physicochemical
Description: “Compound 1, Form C” or “Form C” or “API”” in the Examples herein refers to polymorph Form C of 2-(4-chlorophenyl)-N-((2-(2,6-dioxopiperidin-3-yl)-1-oxoisoindolin-5-yl)methyl)-2,2-difluoroacetamide. “Compound 1, Form A” or “Form A” in the Examples herein refers to polymorph Form A of 2-(4-chlorophenyl)-N-((2-(2,6-dioxopiperidin-3-yl)-1-oxoisoindolin-5-yl)methyl)-2,2-difluoroacetamide.

physchem [12] = assay type: physicochemical; conditions: organic solvent or mixture, thermodynamic from solid, drug solubility in formic acid
Procedure: A solvent screen was conducted to identify suitable Class 3 solvents listed in the ICH (International Conference on Harmonisation) Q3C Guidance as the Class 3 solvents have a higher permitted daily exposure (PDE) level of 50 mg/day. A good solvent candidate was considered to have 1) good miscibility with water and 2) sufficiently low boiling point so that it can be easily removed during the lyophilization process.

## O=C1CCC(N2Cc3cc(CNC(=O)C(F)(F)c4ccc(Cl)cc4)ccc3C2=O)C(=O)N1 (centres unmarked) [Compound 1, 2-(4-chlorophenyl)-N-((2-(2,6-dioxopiperidin-3-yl)-1-oxoisoindolin-5-yl)methyl)-2,2-difluoroacetamide]
[1]
  GSPT1 degradation: dose dependent GSPT1 degradation
  effect on mTORC1 effectors (p4EBP1, phosphorylation of S6): no direct effect
[2]
  proliferation (total, HSC and progenitor cell count): inhibition of proliferation
Physchem [3]
  solubility at 2 days: 135 µg/mL (≈ 292 µM)
  solubility at 9 days: 115 µg/mL (≈ 249 µM)
  solubility at 34 days: 98 µg/mL (≈ 212 µM)
[4]
  tumor growth inhibition (mean tumor volume): showed tumor growth inhibition
[4]; 1.25 mg/kg and 2.5 mg/kg
  anti-tumor activity: moderate anti-tumor activity
[4]; 5 mg/kg
  anti-tumor activity: prominent anti-tumor activity
[5]
  Mcl-1 levels: reduce levels of Mcl-1
[6]; GA0087-1st experiment
  Maximal Inhibition: 90.71%
[6]; GA0087-2nd experiment
  Maximal Inhibition: 92.41%
[6]; ex vivo 3D assay, 7 days, single agent
  activity in the GA0087 model: shows activity
[7]; read-out: Absolute IC50, GA0087-1st experiment
  IC50: 20.3 nM
[7]; read-out: Absolute IC50, GA0087-2nd experiment
  IC50: 16.4 nM
[7]; read-out: Relative IC50, GA0087-1st experiment
  IC50: 16.3 nM
[7]; read-out: Relative IC50, GA0087-2nd experiment
  IC50: 15.2 nM
Physchem [8]
  solubility at 72 h: 86 µg/mL (≈ 186 µM)
[9]
  difference in single agent effect on cell viability between cell lines: no difference
[10]; 14 days in methocult media, samples MF13, MF14
  number of colony forming cells: reduced by Compound 1 in a dose dependent manner
[10]; compared with samples from healthy volunteers
  IC50 in colony forming assay: lower than IC50s observed in samples from healthy volunteers
Physchem [11]
  Hygroscopicity: Not hygroscopic
  Solid State Stability: DS is physically stable under all storage conditions.
Physchem [11]; pH 5
  chemical stability in solution: chemically instable in solution above pH 5
Physchem [11]; water
  solubility: ≤ 1 µg/mL
Physchem [12]
  solubility: ~170000 µg/mL (≈ 368000 µM)
